The text below walks through data of US11220498B2, “Neuroprotective aminothiazoles” (priority 2018, dated 2022).

Test [1] relates to SUMOylation of His-RanGap. Briefly: HTRF assay measuring increase in SUMOylation of His-RanGap. As to conditions: His-RanGap substrate, SUMO-E1 (SAE), SUMO-E2 (UBC9), GST-SUMO; HTRF ratio 665/620; 30 min at room temperature; triplicate. It counts as biochemical. The procedure: Assay measuring increase in SUMOylation of His-RanGap. We utilized an HTRF assay containing SUMO-E1 (SAE), SUMO-E2 (UBC9), GST-SUMO and His-RanGap, a known SUMO substrate, as well as the respective fluorescent antibodies. The assay was run in 1536-well plate format and the selected activators were chosen based on their ability to increase the FRET signal over a baseline level. In 1536-well white plates, 2 μl of phosphate buffered saline (assay buffer) was dispensed into columns 1 and 2, and 2 μl of Mixture 1 (37.5 nM E1 and 100 nM His-RanGap-1) in assay buffer (50 mM Tris-HCl pH 7.4, 0.3 mM DTT, 10 mM MgCl2, 0.005% Tween-20), was dispensed into columns 3-48. Using a pintool, 70 nl of 2 mM compounds in DMSO was dispensed to columns 5-48 and 70 nl of DMSO was dispensed to columns 1-4. Using the Thermo Scientific MultiDrop Combi, 2 μL of Mixture 2 (20 mM ATP, 12.5 nM E2 and 30 nM GST-SUMO in buffer) was dispensed to all wells and incubated for 30 min. at room temperature followed by 1 μl of 500 mM KF. Plates were read on a PheraStar in a HTRF mode (Ex: 337 nm; Em: 620/665 nm). The ratio of fluorescence 665 over 620 was utilized as a readout of the assay. Increase in SUMOylation was calculated by comparison to baseline level. Measurements were done in triplicate.
(In general: In TR-FRET formats the signal depends on donor and acceptor labels being close together.)

Test [2] has as its system CSM14.1 cells. Briefly: Rescue of CSM14.1 neurons from thapsigargin-induced cell death (ATPlite cell viability). In kind it is cell-based. The note with it: Rattus norvegicus, Neuron, 10 μM compound, 2 h preincubation, 15 μM TG for 20 h, read-out: % CSM14.1 Cell Viability after treatment with 15 μM TG in Presence of 10 μM compound. The text has this:
Ability of compounds to rescue CSM14.1 neurons from thapsigargin-induced cell death. To assess the ability of the compounds to rescue neurons from ER stress-induced cell death, the rat striatel neuroprogenitor cell line CSM14.1 was used. Endoplasmic reticulum (ER) stress has been established as the major cause of neuronal loss in stroke, ischemia, and neurodegeneration (Tajiri, S.; Oyadomari, S.; Yano, S.; Morioka, M.; Gotoh, T.; Hamada, J. I.; Ushio, Y.; Mori, M. Cell Death Differ. 2004, 11, 403-415; Kohno, K.; Higuchi, T.; Ohta, S.; Kumon, Y.; Sakaki, S. Neurosci. Lett. 1997, 224, 17-20; ladecola, C.; Zhang, F.; Casey, R.; Nagayama, M.; Ross, M. E. J. Neurosci. 1997, 17, 9157-9164). Thus, we used the known ER stress-causing agent thapsigargin (TG) to model the compromised state in vitro. TG causes 100% cell death in most cases, and compounds were assessed for neuroprotection by measuring cell viability when dosed at 10 μM. CSM14.1 cells were recovered from cultures by trypsinization and plated in 96-well plates and incubated overnight at 32° C. 5 μl of test compound was added to achieve a final concentration of […]. Salubrinal and DMSO without compound were used as positive and negative controls, respectively. After 2 h of preincubation, TG-containing DMEM was added to give a final concentration of 15 μM and incubated for an additional 20 h. Cell viability was assessed by a cellular ATP content assay (ATPlite, PerkinElmer Life Sciences).
A general note: In ATP-based viability assays light output follows the ATP content of the culture.

Test [3] has as its system BGMK cells. Nature of the test: cells. It counts as cell-based. As to conditions: read-out: % BGMK Cell Viability after treatment with 15 μM TG in Presence of 10 μM compound. From the text:
Ability of compounds to rescue BGMK cells from thapsigargin-induced cell death. To assess an orthogonal cell line and further validate the ability of SUMOylation activators to rescue varied cell types, the compounds were also profiled for cytoprotection in BGMK cells. Again, we used the known ER stress-causing agent thapsigargin (TG) to model the compromised state in vitro. BGMKs were subcultured at 1.2×10^4 cells/ml. Wells treated with compound were done so for 2 hr. […] After treatment, all cells were washed and fed fresh DMEM complete media and CCK-8 development vehicle, incubated for 2 hr, and absorbance was measured to assess viability. Controls were DMSO (0% viability) and Salubrinal (47% viability).

Molecules are shown by their SMILES.

With `O=C(Nc1nc(-c2ccccn2)cs1)c1ccc(S(=O)(=O)N2CCCCC2)cc1` [Compound C1, 4-(1-Piperidinylsulfonyl)-N-[4-(2-pyridinyl)-2-thiazolyl]-benzamide], the “% INCREASE IN SUMOylation over endogenous baseline level” value (“% INCREASE IN SUMOylation” for short) in test [1] was “D (D = 40%-60% increase in SUMOylation over baseline levels)”. The viability – broadly, the share of living cells, or the viability signal relative to a control – at 10 µM in test [2] lay within 40 to 50%.

Turning to `CC(=O)Nc1ccc(C(=O)Nc2nc(-c3cccnc3)cs2)cc1` [Compound C2, 4-(Acetylamino)-N-[4-(3-pyridinyl)-2-thiazolyl]-benzamide], in test [1], the “% INCREASE IN SUMOylation” value is reported as “A (A = 10%-20% increase)”.

Consider `O=C(Nc1nc(-c2ccccn2)cs1)c1ccc2c(c1)OCCO2` [Compound C3, N-(4-(Pyridin-2-yl)thiazol-2-yl)-2,3-dihydrobenzo[b][1,4]dioxine-6-carboxamide], for which the “% INCREASE IN SUMOylation” value in test [1] is given as “A (A = 10%-20% increase)”. In addition, the viability at 10 µM in test [3] lay in the range of 51 to 60%.

As to `O=C(Nc1nc(-c2ccccn2)cs1)C1COc2ccccc2O1` (stereo not shown) [Compound C4, N-(4-(Pyridin-2-yl)thiazol-2-yl)-2,3-dihydrobenzo[b][1,4]dioxine-2-carboxamide], the “% INCREASE IN SUMOylation” value in test [1] is “D (D = 40%-60% increase in SUMOylation over baseline levels)”. The viability at 10 µM was in the range of 61 to 85% in test [3] and 61 to 70% in test [2].

For the compound `O=C(Nc1nc(-c2ccccn2)cs1)c1ccc(Cl)s1` [Compound C5, 5-Chloro-N-(4-(pyridin-2-yl)thiazol-2-yl)thiophene-2-carboxamide], the “% INCREASE IN SUMOylation” value in test [1] is “B (B = 21%-30% increase)”. Besides, the viability at 10 µM in test [3] lay in the range of 41 to 50%.

With `O=C(Nc1nc(-c2ccccn2)cs1)c1ccc(Br)s1` [Compound C6, 5-Bromo-N-(4-(pyridin-2-yl)thiazol-2-yl)thiophene-2-carboxamide], the “% INCREASE IN SUMOylation” value in test [1] is “C (C = 31%-40% increase)”. Further, the viability at 10 µM in test [3] was 61 to 85%; in test [2], 61 to 70%.
